From patent US12667565B2, “Use of composition for enhancing anticancer effect, comprising ERRy inhibitor as active ingredient” (NOVMETAPHARMA CO., LTD., priority 2019, dated 2026) come the findings set out here.

Series [1] concerns Huh7-SR cell line. The experiment in a line: ROS generation measured by FACS with H2-DCF-DA. The following applies: DN200434 12 μM and sorafenib 10 μM, 24 hours, FIG. 3A. In kind it is cell-based. On the procedure:
(§1) The present inventors have performed experiments using sorafenib-resistant liver cancer cell lines (Huh7-SR and SK-Hep-R cell lines) and a liver cancer cell line-derived animal model (xenograft). To determine an effect of the synthetic compound DN200434, which is an inverse agonist against ERRγ, on the proliferation of liver cancer cells and ROS generation, ROS was measured using a cell count and 2′,7-dichlorofluorescin diacetate (DCF-DA). […]
(§2) In order to investigate an effect of the compound (DN200434) represented by Formula 1, which is an inverse agonist against ERRγ, on ROS generation in sorafenib-resistant liver cancer cells, the effect was measured by FACS using 2′,7′-dichlorohydrofluorescein diacetate (H2-DCF-DA; Invitrogen, USA) as an ROS probe. […] Then, the cells were incubated for 30 minutes, and washed with PBS, and data was collected using a BD Accuri™ C6 flow cytometer (BD Bioscience, USA), and analyzed using an Accuri™ C6 analysis program (BD Bioscience, USA). To determine the number of cells, the sorafenib-resistant liver cancer cell line was treated with the DN200434 compound (12 μM) in combination with sorafenib (10 μM), and stained with trypan blue, and the number of cells was then measured using a hemocytometer.
(A flow cytometer gives signals particle by particle.)

Series [2] has as its system SK-Hep-R cell line. In words: ROS generation measured by FACS with H2-DCF-DA. In kind it is cell-based. The following applies: DN200434 12 μM and sorafenib 10 μM, 24 hours, FIG. 3B. On the procedure:
as §1, §2

The subject of series [3] is Huh7-R sorafenib-resistant liver cancer cell line. In words: Cell proliferation (trypan blue cell count, hemocytometer). The following applies: FIG. 4A. Type of series: cell-based. On the procedure:
(§3) The present inventors have performed experiments using sorafenib-resistant liver cancer cell lines (Huh7-SR and SK-Hep-R cell lines) and a liver cancer cell line-derived animal model (xenograft). To determine an effect of the synthetic compound DN200434, which is an inverse agonist against ERRγ, on the proliferation of liver cancer cells and ROS generation, ROS was measured using a cell count and 2′,7-dichlorofluorescin diacetate (DCF-DA). Finally, after a sorafenib-resistant liver cancer cell line was injected into […] to induce the formation of sorafenib-resistant liver cancer, changes in size of liver cancer were confirmed in the group injected with the inverse agonist against ERRγ (DN200434) and sorafenib and the group injected with the control drug.
(§4) In order to investigate an effect of the compound (DN200434) represented by Formula 1, which is an inverse agonist against ERRγ, on ROS generation in sorafenib-resistant liver cancer cells, the effect was measured by FACS using 2′,7′-dichlorohydrofluorescein diacetate (H2-DCF-DA; Invitrogen, USA) as an ROS probe. Drug-resistant cells were treated with sorafenib (10 μM) and the DN200434 compound (12 μM) for 24 hours, and 10 μM H2-DCF-DA was added to the cells. Then, the cells were incubated for 30 minutes, and washed with PBS, and data was collected using a BD Accuri™ C6 flow cytometer (BD Bioscience, USA), and analyzed using an Accuri™ C6 analysis program (BD Bioscience, USA). To determine the number of cells, the sorafenib-resistant liver cancer cell line was treated with the DN200434 compound (12 μM) in combination with sorafenib (10 μM), and stained with trypan blue, and the number of cells was then measured using a hemocytometer.

The test system of series [4] is SK-Hep-R sorafenib-resistant liver cancer cell line. Described as above. In kind it is cell-based. The settings on record: FIG. 4B. On the procedure: as §3, §4
In series [5] the test system is sorafenib-resistant liver cancer cell line Huh7-R. In words: Sorafenib-resistant liver cancer animal model (xenograft). Type of series: in vivo, mice. On the procedure: as §3
(§5) The sorafenib-resistant liver cancer cell line Huh7-R was injected into mice in order to construct a sorafenib-resistant liver cancer animal model (xenograft). Thereafter, the inverse agonist against ERRγ (e.g., DN200434 (Formula 1)) was administered in combination with sorafenib, and the size change of the formed mass was measured. In this case, the group in which the sorafenib-resistant liver cancer-derived animal model was treated with sorafenib alone was used as the comparative control.

Series [6] relates to sorafenib-resistant liver cancer cell line SK-Hep-R. The series is described as above. Type of series: in vivo, mice. As for the experimental part:
as §3, §5
An animal model derived from the sorafenib-resistant liver cancer cell line SK-Hep-R was constructed in the same manner as described above, and the effect of co-administration of the DN200434 compound represented by Formula 1, which is an inverse agonist against ERRγ, and sorafenib was confirmed.

Series [7] concerns Huh7-SR cell line. The experiment in a line: Cell death by sorafenib (annexin/PI FACS, cleaved caspase-3). Type of series: cell-based. The settings on record: Huh7-SR cells; FIGS. 1A to 1C. On the procedure:
(§6) Hepatocarcinoma cell lines [Huh7 cells (Korea Cell Line Bank (KCLB) No. 60104), SK-Hep cells (ATCC® HTB-52™)] were continuously exposed to sorafenib (gradually increasing to 10 μM) to construct sorafenib-resistant liver cancer cell lines (Huh7-SR and SK-Hep-R cell lines). To evaluate the cancer cell death by FACS, first, a cancer cell line was incubated in FITC-bound annexin and propidium iodide (PI) for 15 minutes, and annexin and PI binding were then measured by flow cytometry to acquire data using a BD Accuri C6 flow cytometer (BD Biosciences) and analyzed with the Accuri C6 analysis program (BD Biosciences)/FlowJo software (FlowJo, LLC.). Cancer cell line death was evaluated using a cleaved caspase-3 antibody (Cell Signaling Technology).

The subject of series [8] is SK-Hep-R cell line. The series is described as above. The settings on record: SK-Hep-R cells; FIGS. 1A to 1C. In kind it is cell-based. On the procedure: as §6
Setting [9] is: DN200434 12 μM in combination with sorafenib 10 μM.

As to `CC(C)N1CCN(c2ccc(/C(=C(/CCCO)c3ccccc3)c3ccc(O)cc3)cc2)CC1` [DN200434], the ROS result with Huh7-SR cell line [1] and with SK-Hep-R cell line [2] was “increase” throughout. In addition, the cell proliferation result in series [3] (setting [9]) and in series [4] (setting [9]) was “significantly decreased” in each case. Also, the body weight change result in series [5] (in combination with sorafenib vs sorafenib-alone control, FIG. 5D) is “no difference”; in series [6] (in combination with sorafenib vs sorafenib-alone control, FIG. 6D), “no difference”. In addition, the tumor size entry in series [5] (in combination with sorafenib, compared to sorafenib-alone control, FIG. 5A) is reported as “significantly decreased”; in series [6] (in combination with sorafenib, compared to sorafenib-alone control, FIG. 6A), “remarkably decreased”. The tumor weight result is recorded as “significantly decreased” in series [5] (in combination with sorafenib, compared to sorafenib-alone control, FIG. 5B) and “remarkably decreased” in series [6] (in combination with sorafenib, compared to sorafenib-alone control, FIG. 6B). In addition, the tumor volume entry in series [5] (in combination with sorafenib, compared to sorafenib-alone control, FIG. 5C) is on record as “significantly decreased”; in series [6] (in combination with sorafenib, compared to sorafenib-alone control, FIG. 6C) it was “remarkably decreased”.

With `CNC(=O)c1cc(Oc2ccc(NC(=O)Nc3ccc(Cl)c(C(F)(F)F)c3)cc2)ccn1` [sorafenib, reference compound], the “cell death by sorafenib” value with Huh7-SR cell line [7] and with SK-Hep-R cell line [8] was “did not increase” throughout. Moreover, the cell proliferation result in series [3] (sorafenib alone) and in series [4] (sorafenib alone) was “not affected” each time.
